Measured values as given in patent publication US9375450B2, “Vaginal tissue rejuvenation compositions and methods” (priority 2011, dated 2016).

Tests used:
Format in all cases: cell-based, human
[1] = test system: primary vaginal smooth muscle cells; test: Sircol collagen assay (cell culture surface deposited collagen); details: 48 hours of treatment, mean±SD
Procedure: (§1) After removal of the uterus, full-thickness samples of the anterior vaginal wall were obtained from the vaginal cuff at the anterior midline portion under sterile condition from four women without POP. Specimens were preserved in cold DMEM/F12 (Invitrogen, Carlsbad, Calif.) supplemented with 10% FBS, 1 mM glutamine, 0.075% Na2HCO3 and 100 ug/ml penicillin-streptomycin. After a maximum time of 4 hours from tissue harvesting the tissue was mechanically minced in cold cultured media and the fragments were washed 3 times in PBS and were plated onto fibronectin coated plastic dishes (Thermo Fischer Scientific, Rochester, N.Y.). After the initial outgrowth, clones with a morphology resembling the smooth muscle phenotype were patch cloned and propagated in culture. For cell characterization a 5000 cell/well fibronectin coated 8-well chamber slide was plated. Once cell confluence reached 80% the cells were washed twice with PBS and fixed in 4% PFA for 30 min at 37° C. To verify the intracytoplasmic distribution of F-actin fibers 4% PFA fixed cells were exposed to a permeabilizing solution of Tryton X100 0.1% and Rhodamine Phalloidin for 45 min at 37° C. Slides were then treated with mounting media (Vectashield, Vector Laboratories, Burlingame, Calif.) containing DAPI for nucleic acid staining and image acquisition was performed in glycerol immersion by confocal microscopy. In addition, the 8-well chamber slides were used to carry out the immunocytochemical staining. After blockage of endogenous peroxidase activity with a solution of hydrogen peroxide and methanol, slides were sequentially treated with the primary mouse antibody, biotinylated anti-mouse immunoglobulin, and Streptavidin-biotin-peroxidase complex (LSAB™+/HRP kit, Dako, Carpinteria, Calif.). Diaminobenzidine was used as a chromogen in the presence of hydrogen peroxide. Slides were then counterstained with hematoxylin. All reactions were carried out at room temperature (22° C.). To identify the SMC, anti-smooth muscle actin antibodies were used (monoclonal mouse, 1:250, 30 min incubation, clone 1A4, catalog #0851 Dako, Carpinteria, Calif.). Caldesmon expression was studied with a monoclonal mouse antibody, 1:100, 30 min incubation, (clone h-CD catalog #M3557 Dako, Carpinteria, Calif.). An antigen retrieval step was used for caldesmon using citrate buffer and a steamer for 30 min. As a negative control normal mouse serum was substituted for the antibody.
The Sircol Assay (Biocolor Ltd., UK) is a dye-binding method designed for the analysis of acid and pepsin-soluble collagens. […]
The amount of collagen was determined by SIRCOL collagen assay according to manufacturer's instructions. […] Extracts were incubated with Sirius red dye and absorbance was determined at 555 nm with a spectrophotometer.

[2] = test system: primary vaginal smooth muscle cells; test: MTT proliferation assay; details: mean±SD
Procedure: as §1
To perform the MTT proliferation assay, SMC from the fourth to sixth passages (5,000 cells per well) were cultured in 96-well culture plates (Costar, Cambridge, Mass.), in a total volume of 200 μL DMEM/F-12 with 10% FBS. Cells were incubated with zinc sulfate heptahydrate (Sigma, Saint Louis, Mo.) (10 μM, 20 μM and 50 μM), GW501516 (Alexis, Switzerland) (1 nM, 10 nM, 100 nM) in 96-well plates and cell proliferation was assessed by a 3-[4,5-dimethylthiazol-2-yl]-2,5-diphenyl tetrazoliumbromide (MTT) assay at 24 or 48 hrs utilizing a commercially available MTT assay kit (American Type Culture Collection, Catalog #30-1010K, Manassas, Va.). Treatment and control groups were performed in 6 replicate wells. The relative number of viable cells was determined at 24 or 48 hours by incubating the cells with 1 mg/mL of MTT for 4 hours. The live cells utilized MTT resulting in the accumulation of formazan crystals which were then solubilized with acid isopropanol (90% isopropyl alcohol, 2.5% SDS, 0.004 N HCL) for 1 hour. The optical density of the solution was measured at 570 nm.

[3] = test system: primary vaginal smooth muscle cells; test: Fastin assay for elastin (tropoelastin and surface deposited elastin production); details: for tropoelastin production normalized to cell number (% of control) / cell culture surface deposited elastin production normalized to cell number (% of control): mean±SD; for cell culture surface deposited elastin production normalized to cell number (% of control): 48 hours of treatment; for vaginal smooth muscle cell elastin production (in words): cell cultures of the vagina from women who have undergone a hysterectomy
Procedure: as §1
SMC from the fourth to sixth passages (5,000 cells per well) were cultured in 96-well or 6-well culture plates (Costar, Cambridge, Mass.), in a total volume of 200 μL or 2 mL DMEM/F-12 with 10% FBS and were grown to near confluence. Cells were incubated with zinc sulfate (10 μM, 20 μM), GW501516 (1 nM, 10 nM, 100 nM) or zinc sulfate with GW 501516 (20 μM with 10 nM) in 96-well plates with serum free DMEM/F-12. Treatment and control groups were performed in 6 replicate wells. Supernatants and cell lysates were collected 24 or 48 hrs after the initiation of treatment. Supernatants and cell lysates were treated with the Fastin Elastin Assay kit (Biocolor Ltd, UK) as recommended by the manufacturer. The Fastin Elastin Assay is a quantitative dye-binding method for the analysis of elastins extracted from biological materials. The dye label employed is 5, 10, 15, 20-tetraphenyl-21, 23-porphine tetra-suffocated (TPPS). The dye reagent binds to the ‘basic’ and ‘non-polar’ amino acid sequences found in mammalian elastins. Recovered dye-bound elastin from each sample and standard was read in a 96-well plate at 513 nm. All measurements were performed in quadruplicate. The measured elastin protein amounts were normalized to corresponding cell numbers to provide a reliable basis of comparison between samples.

Cc1cc(SCc2sc(-c3ccc(C(F)(F)F)cc3)nc2C)ccc1OCC(=O)O [GW501516, 2-[2-methyl-4-([4-methyl-2-[4-(trifluoromethyl)phenyl)-1,3-thiazol-5-yl]methylsulfanyl]phenoxy]acetic acid]
cell culture surface deposited collagen production normalized to cell number (% of control) ([1]; GW 10 nM): 151.0±22 % of control
cell culture surface deposited collagen production normalized to cell number (% of control) ([1]; GW 100 nM): 118.2±19 % of control
relative cell number (% of control) ([2]; 1 nM, 24 hrs of culture): 98.9±10.3 % of control
relative cell number (% of control) ([2]; 10 nM, 24 hrs of culture): 95.9±6.5 % of control
relative cell number (% of control) ([2]; 100 nM, 24 hrs of culture): 87.0±10.6 % of control
tropoelastin production normalized to cell number (% of control) ([3]; 1 nM, 24 hrs of culture): 106.6±16 % of control
tropoelastin production normalized to cell number (% of control) ([3]; 10 nM, 24 hrs of culture): 120.5±16 % of control
tropoelastin production normalized to cell number (% of control) ([3]; 100 nm, 24 hrs of culture): 146.7±11 % of control
cell culture surface deposited elastin production normalized to cell number (% of control) ([3]; GW 10 nM): 108.2±6 % of control
cell culture surface deposited elastin production normalized to cell number (% of control) ([3]; GW 100 nM): 112.2±16 % of control
vaginal smooth muscle cell elastin production (in words) [3]: significantly increase

O.O.O.O.O.O.O.O=S(=O)([O-])[O-].[Zn+2] [zinc sulfate, zinc sulfate heptahydrate]
cell culture surface deposited collagen production normalized to cell number (% of control) ([1]; zinc sulfate 10 μM): 139.3±49 % of control
cell culture surface deposited collagen production normalized to cell number (% of control) ([1]; zinc sulfate 20 μM): 129.6±27 % of control
relative cell number (% of control) ([2]; 10 μM, 48 hrs of culture): 94.7±4.6 % of control
relative cell number (% of control) ([2]; 20 μM, 48 hrs of culture): 90.4±5.5 % of control
relative cell number (% of control) ([2]; 50 μM, 48 hrs of culture): 43.3±30.0 % of control
tropoelastin production normalized to cell number (% of control) ([3]; 10 μM, 48 hrs of culture): 113.3±11 % of control
tropoelastin production normalized to cell number (% of control) ([3]; 20 μM, 48 hrs of culture): 117±8.9 % of control
vaginal smooth muscle cell elastin production (in words) [3]: significantly increased
cell culture surface deposited elastin production normalized to cell number (% of control) ([3]; zinc sulfate 10 μM): 114.7±6 % of control
cell culture surface deposited elastin production normalized to cell number (% of control) ([3]; zinc sulfate 20 μM): 118.0±25 % of control
